From publication PMC6010047, “Design, synthesis and biological evaluation of novel hydroxy-phenyl-1H-benzimidazoles as radical scavengers and UV-protective agents” (Journal of Enzyme Inhibition and Medicinal Chemistry, 2017)
“Also recorded” adds a separate entry of the source.

How the values were obtained:
[1] = Ferric reducing antioxidant of potency (FRAP) assay; format: biochemical; details: Trolox equivalents; mean ± SE of three experiments
Procedure: The ferric reducing ability of each standard solution was measured according to a modified protocol described by Guihua et al.[26]. The reagent for analysis was freshly prepared by mixing the following solutions in the reported ratio 10/1/1 (v:v:v) (i) 0.1 M acetate buffer pH 3.6, (ii) TPTZ (2,4,6-Tri(2-pyridyl)-s-triazine) 10 mmol/L in 40 mmol/HCl, (iii) ferric chloride 20 mmol/L. To a 1.9 mL of reagent were added 0.1 mL of sample proper diluted or solvent when blank was performed. Readings at fixed wavelength of the absorption maximum (593 nm) were done after 30 min, using a UV-VIS spectrophotometer; it was evaluated the absorbance increase of sample solution against the absorbance of blank reaction as parameter to calculate the antioxidant activity. The antioxidant activity is given as Trolox activity since this standard was used to perform the calibration curves.

[2] = Photochemiluminescence (PCL) method, ACL kit; format: biochemical; details: pure compound; Trolox equivalents; mean ± SE of three experiments
Procedure: PCL assay, based on the methodology of Popov and Lewin[23], was used to measure the antioxidant activity of synthesized compounds with a Photochem® apparatus (Analytik Jena, Leipzig, Germany) against superoxide anion radicals generated from luminol, a photosensitizer, when exposed to UV light (Double Bore® phosphor lamp, output 351 nm, 3 mWatt/cm^2). The antioxidant activity was measured using ACL (Antioxidant Capacity of Liposoluble substance) kit provided by the manufacturer designed to measure the antioxidant activity of lipophilic compounds[24]. […] The areas under the curves were calculated using the PCLsoft control and analysis software. […] This inhibition was used as a parameter for quantification and related to the decrease in the integral of PCL intensities caused by varying concentrations of Trolox. The observed inhibition of the signal was plotted against the concentration of Trolox added to the assay medium. The concentration of the added tested compounds was such that the generated luminescence during the 180-s sampling interval fell within the limits of the standard curve. The antioxidant assay was carried out in triplicate for each sample, and 20 μL of the diluted compound in HPLC-grade methanol (ACL) was sufficient to correspond to the standard curve.

[3] = In vitro evaluation of filtering parameters of formulations on PMMA plates (Diffey and Robson); details: for SPF / UVA/UVB / UVAPF / λc (critical wavelength): 3% (w/w) in O/W formulation, PMMA plates
Source text: It was decided to use a standard formulation oil in water (O/W).
In vitro approaches consist in applying a thin film of sunscreen product on an artificial substrate and test, via spectrophotometric measures, the amount of UV radiation passing through the film. Several different artificial substrates are available for this type of analysis; the substrate should be as closed as possible to the physical characteristics of the skin. Among the substrates available for these purposes, the substrate used in this study to analyse the sunscreen products were PMMA plates. This substrate is easily handled and can be supplied with a reproducible roughness. WW5 PMMA plates have been purchased from Schonberg GmbH (Munich, Germany). The plates, used in this study, have an area of 25 cm^2 and standardized […] roughness. Transmittance and absorbance measurements were carried out by a SHIMAZDU UV-2600 provided of integrating sphere ISR 2600 60 mm and coupled with a SPF determination software and a PMMA plate with approximately 15 μL of glycerin served as reference.
In order to evaluate possible activity as sun filters and antioxidants, suitable in the development of novel class of dualistic sunscreens, the synthesized molecules were included at the concentration of 3% (w/w) in a topical formulation. To this end standard oil in water (O/W) formulation was devised, taking into account the absence of any UV filtering and/or antioxidant molecule, in order to obtain a reference formulation. It was not possible to analyze compound 7 in the formulation because of high instability (phase separation induced by 7). Formulations containing the active ingredients were tested for their SPF efficacy by the in vitro method derived from Diffey and Robson[32], in comparison with the same formulation containing the reference PBSA.
This method is based on the measure of spectral transmission of ultraviolet radiation, with and without the sunscreen applied, through an irregular substrate that simulates the skin surface and permits transmission of UV radiation. Although with some limitation, the test is used to predict SPF in vivo and to screen the filtering activity of new molecules that cannot be tested by in vivo because of lacking of more data concerning safety. The critical wavelength (λc) for the test product is defined as that wavelength where the area under the absorbance spectrum for the irradiated product from 290 nm to λc is 90% of the integral of the absorbance spectrum from 290 nm to 400 nm. Critical wavelength value of greater than 370 nm is necessary, in order to satisfy requirements for broad-spectrum UVB/UVA protection and associated labeling. Polymethylmethacrylate plates (PMMA) with a specific roughness were a satisfactory substrate for this method, because they are UV-transparent, nonfluorescent, photostable and inert to all potential sunscreen formulation ingredients. Table 3 lists the data obtained for the model formulation containing the synthesized compounds. These parameters are necessary to evaluate whether a sunscreen fulfills the requirements for efficacy, and they are SPF, UVA protection factor (UVAPF), UVA/UVB ratio and critical wavelength.
A set of model formulations was prepared: an oil-in-water emulsion (O/W), without sunscreen molecules (Ref. A, Figure 5), prepared as reference formulation; two formulations containing PBSA or oxisol (12) at 3% were prepared (Ref. C and B, respectively, Figure 5), in order to evaluate the filter properties of oxisol (12). Moreover, as stated earlier, SPF booster properties were assayed on other four formulations including a mix of filters with a theoretical SPF value of 15 and 30, adding 3% of oxisol (12) or PBSA (Ref. E, F, G, H, Figure 5). […]

[4] = Cytotoxicity, MTT test, 72 h; details: human, NCTC-2544 keratinocytes (immortalized, nontumorigenic)
Procedure: An immortalized, nontumorigenic cell line of human keratinocytes (NCTC-2544) was grown in a DMEM medium (Sigma-Aldrich Milan, Italy), supplemented with 115 units/mL of penicillin G, 115 μg/mL streptomycin, and 10% fetal calf serum (Invitrogen, Milan, Italy). Individual wells of a 96-well tissue culture microtiter plates (Falcon, Becton–Dickinson) were inoculated with 100 μL of complete medium containing 5 × 10^3 NCTC-2544. The plates were incubated at 37 °C in a humidified (5% CO2) incubator for 18 h prior to the experiments.
After medium removal, 100 μL of the drug solution, dissolved in DMSO and diluted in DMEM medium, was added to each well, incubated at 37 °C for 72 h. Final DMSO concentration never exceeded 0.5%. Cell viability was assayed by the MTT (3–(4,5-dimethylthiazol-2-yl)-2,5 diphenyl tetrazolium bromide) test as previously described by Mosmann[27].
The tests were conducted using a specific cell line of human keratinocytes (NCTC-2544). To assess cell viability, in the presence of the study compounds, before and after the irradiation, the MTT assay was performed[27]. The cytotoxicity was checked after 72 h from the incubation of the keratinocytes with compounds; moreover, the same experiments were performed in the presence of the parent PBSA.

## 2-(2,4-Dihydroxy-phenyl)-1H-benzimidazole [Compound 9]
[1]
  FRAP: 37.3 ± 0.35 μmolTrolox/mmol
[2]
  PCL: 198.53 ± 2.65 μmolTrolox/mmol
[3]
  SPF: 3.57 ± 0.23
  UVA/UVB: 1.10 ± 0.05
  UVAPF: 1.89 ± 0.05
  λc (critical wavelength): 380 nm

## O=S(=O)(O)c1ccc2[nH]c(-c3ccc(O)cc3O)nc2c1 [Compound 5, 2-(2,4-Dihydroxy-phenyl)-1H-benzimidazole-5-sulfonic acid]
[1]
  FRAP: 19.87 ± 0.22 μmolTrolox/mmol
[2]
  PCL: 159.1 ± 4.3 μmolTrolox/mmol
[3]
  SPF: 2.18 ± 0.14
  UVA/UVB: 1.13 ± 0.01
  UVAPF: 1.21 ± 0.04
  λc (critical wavelength): 370 nm
[4]
  IC50 at 72 h: > 50 µM

## O=C(O)c1ccc2[nH]c(-c3ccc(O)c(O)c3)nc2c1 [Compound 12, 2-(3,4-Dihydroxy-phenyl)-1H-benzimidazole-5-carboxylic acid]
[1]
  FRAP: 2433.28 ± 21.74 μmolTrolox/mmol
[2]
  PCL: 13174.31 ± 240.68 μmolTrolox/mmol
[3]
  SPF: 2.21 ± 0.17
  UVA/UVB: 1.00 ± 0.04
  UVAPF: 1.88 ± 0.12
  λc (critical wavelength): 370 nm
[3]; O/W emulsion with 3% of the molecule only
  SPF of emulsion (Figure 5): does not present an appreciable value of SPF
[4]
  IC50 at 72 h: > 50 µM

## 2-(2-Hydroxy-phenyl)-1H-benzimidazole [Compound 10]
[1]
  FRAP: 23.04 ± 0.09 μmolTrolox/mmol
[2]
  PCL: 10.93 ± 0.05 μmolTrolox/mmol
[3]
  SPF: 1.96 ± 0.14
  UVA/UVB: 1.01 ± 0.02
  UVAPF: 1.06 ± 0.08
  λc (critical wavelength): 378 nm

## O=S(=O)(O)c1ccc2[nH]c(-c3ccc(O)c(O)c3)nc2c1 [Compound 3, 2-(3,4-Dihydroxy-phenyl)-1H-benzimidazole-5-sulfonic acid]
[1]
  FRAP: 2707.29 ± 29.52 μmolTrolox/mmol
[2]
  PCL: 22,838 ± 836,26 μmolTrolox/mmol
[3]
  SPF: 9.83 ± 0.64
  UVA/UVB: 0.74 ± 0.04
  UVAPF: 3.63 ± 0.23
  λc (critical wavelength): 358 nm
[4]
  IC50 at 72 h: > 50 µM

## O=C(O)c1ccc2[nH]c(-c3ccc(O)c(O)c3O)nc2c1 [Compound 15, 2-(2,3,4-Trihydroxy-phenyl)-1H-benzimidazole-5-carboxylic acid]
[1]
  FRAP: 2355.15 ± 52.55 μmolTrolox/mmol
[2]
  PCL: 1515.65 ± 75.56 μmolTrolox/mmol
[3]
  SPF: 3.69 ± 0.24
  UVA/UVB: 0.96 ± 0.08
  UVAPF: 1.87 ± 0.08
  λc (critical wavelength): 382 nm
[4]
  IC50 at 72 h: > 50 µM

## O=C(O)c1ccc2[nH]c(-c3ccc(O)cc3)nc2c1 [Compound 14, 2-(4-Hydroxy-phenyl)-1H-benzimidazole-5-carboxylic acid]
[1]
  FRAP: 2.62 ± 0.06 μmolTrolox/mmol
[2]
  PCL: 6.98 ± 0.27 μmolTrolox/mmol
[3]
  SPF: 6.01 ± 0.31
  UVA/UVB: 0.70 ± 0.05
  UVAPF: 2.04 ± 0.11
  λc (critical wavelength): 350 nm
[4]
  IC50 at 72 h: > 50 µM

## Oc1ccc(-c2nc3ccccc3[nH]2)cc1O [Compound 8, 2-(3,4-Dihydroxy-phenyl)-1H-benzimidazole]
[1]
  FRAP: 2663.21 ± 32.53 μmolTrolox/mmol
[2]
  PCL: 19190.6 ± 443.18 μmolTrolox/mmol
[3]
  SPF: 5.20 ± 0.20
  UVA/UVB: 0.78 ± 0.02
  UVAPF: 1.90 ± 0.09
  λc (critical wavelength): 368 nm
[4]
  IC50 at 72 h: > 50 µM

## O=S(=O)(O)c1ccc2[nH]c(-c3ccc(O)cc3)nc2c1 [Compound 2, 2-(4-Hydroxy-phenyl)-1H-benzimidazole-5-sulfonic acid]
[1]
  FRAP: 12.23 ± 0.25 μmolTrolox/mmol
[2]
  PCL: 11.36 ± 0.08 μmolTrolox/mmol
[3]
  SPF: 4.74 ± 0.15
  UVA/UVB: 0.51 ± 0.01
  UVAPF: 1.36 ± 0.07
  λc (critical wavelength): 346 nm
[4]
  IC50 at 72 h: 26.4 ± 2.7 µM

## O=S(=O)(O)c1ccc2[nH]c(-c3ccccc3)nc2c1 [PBSA, 2-phenyl-1H-benzimidazole-5-sulfonic acid, reference compound]
[2]
  PCL: devoided of any activity; also recorded: < LOQ^a
[3]
  SPF: 4.56 ± 1.09
  UVA/UVB: 0.26 ± 0.05
  UVAPF: 1.04 ± 0.06
  λc (critical wavelength): 333 nm
[4]
  IC50 at 72 h: > 50 µM

## O=S(=O)(O)c1ccc2[nH]c(-c3ccc(O)c(O)c3O)nc2c1 [Compound 6, 2-(2,3,4-Trihydroxy-phenyl)-1H-benzimidazole-5-sulfonic acid]
[1]
  FRAP: 2713.3 ± 45.17 μmolTrolox/mmol
[2]
  PCL: 1924.35 ± 101.82 μmolTrolox/mmol
[3]
  SPF: 5.99 ± 0.12
  UVA/UVB: 0.89 ± 0.03
  UVAPF: 2.72 ± 0.08
  λc (critical wavelength): 383 nm
[4]
  IC50 at 72 h: 23.1 ± 2.9 µM

## O=S(=O)(O)c1ccc2[nH]c(-c3ccccc3O)nc2c1 [Compound 4, 2-(2-Hydroxy-phenyl)-1H-benzimidazole-5-sulfonic acid]
[1]
  FRAP: 16.22 ± 0.89 μmolTrolox/mmol
[2]
  PCL: 2.06 ± 0.05 μmolTrolox/mmol
[3]
  SPF: 2.22 ± 0.13
  UVA/UVB: 0.96 ± 0.01
  UVAPF: 1.06 ± 0.07
  λc (critical wavelength): 355 nm
[4]
  IC50 at 72 h: > 50 µM

## O=C(O)c1ccc2[nH]c(-c3ccc(O)cc3O)nc2c1 [Compound 13, 2-(2,4-Dihydroxy-phenyl)-1H-benzimidazole-5-carboxylic acid]
[1]
  FRAP: 31.63 ± 1.96 μmolTrolox/mmol
[2]
  PCL: 160.26 ± 4.09 μmolTrolox/mmol
[3]
  SPF: 2.85 ± 0.17
  UVA/UVB: 1.27 ± 0.02
  UVAPF: 1.58 ± 0.10
  λc (critical wavelength): 368 nm
[4]
  IC50 at 72 h: > 50 µM

## Oc1ccc(-c2nc3ccccc3[nH]2)c(O)c1O [Compound 11, 2-(2,3,4-Trihydroxy-phenyl)-1H-benzimidazole]
[1]
  FRAP: 2723.19 ± 35.74 μmolTrolox/mmol
[2]
  PCL: 1614.675 ± 19.95 μmolTrolox/mmol
[3]
  SPF: 2.85 ± 0.22
  UVA/UVB: 0.90 ± 0.01
  UVAPF: 1.35 ± 0.1
  λc (critical wavelength): 381 nm
[4]
  IC50 at 72 h: > 50 µM
